Laboratory results reported in patent US20250303004A1, “RADIOPHARMACEUTICAL COMPOSITIONS FOR LOW TOXICITY ACTINIUM IN TARGETED RADIONUCLIDE THERAPY” (Curium US LLC, priority 2021, published 2025).
Entries after “also recorded” stand apart in the source; their conditions may differ. Read-outs that look alike come from different tables or passages of the source.

Experiments:
[1] = tested on: patients with mCRPC; details: cited from earlier work
[2] = tested on: mCRPC patients; details: cited from earlier work
[3] = tested on: patient; details: cited from earlier work
[4] = tested on: men with mCRPC; details: cited from earlier work
[5] = tested on: chemotherapy naive patients; details: cited from earlier work
[6] = tested on: patients; details: out of 60; cited from earlier work
[7] = tested on: patients; details: van der Doelen 2020; 13 patients; 6-8 MBq per cycle; cited from earlier work
[8] = tested on: kidneys; details: in vivo; cited from earlier work
[9] = tested on: patients with mCRPC; details: cited from earlier work; remark: listed apart in the source
[10] = tested on: patient; details: Sathekge 2019a; 1 patient; 8 MBq per cycle; cited from earlier work
[11] = tested on: patient; details: De Medeiros 2019; 1 patient; 6-8 MBq per cycle; cited from earlier work
[12] = tested on: salivary glands, kidneys, red marrow; assay: Dosimetry estimate for ^225Ac-PSMA-617 extrapolated from ^177Lu-PSMA-617 scans; assay type: in vivo, human; details: FIG. 15
Method: The clinical dosimetry basis and dose finding study was performed by using the isotopes ^225Ac and ^177Lu by Kratochwil et al. A dosimetry estimate was calculated on the basis of time-activity curves derived from serially obtained ^177Lu-PSMA-617 scans extrapolated to the physical half-life of ^225Ac, assuming instant decay of unstable daughter nuclides. Salvage therapies empirically conducted with 50 (n=4), 100 (n=4), 150 (n=2), and 200 kBq/kg (n=4) of 225Ac-PSMA-617 were evaluated retrospectively regarding toxicity and treatment response. Eight of 14 patients received further cycles in either 2- or 4-mo intervals with identical or de-escalated activities.
In FIG. 15, the absorbed radiation dose estimates for ^225Ac-PSMA-617 are shown together with I-131-“PSMA” and ^177Lu-PSMA-617 doses. We see that mean dose for salivary glands is approximately 70% higher with ^225Ac-PSMA-617 than with ^177Lu-PSMA-617, and red marrow dose 85% higher, respectively.

[13] = tested on: patients with mCRPC; details: cited from earlier work; for Biochemical response PSA50 (PSA decline of more than 50%): 40 patients (38 evaluated)
[14] = Yadav 2020, 28 patients, 100 kBq/kg per cycle
[15] = group with previous ^177Lu-PSMA
[16] = Kratochwil 2017, 14 patients, 50-200 kBq/kg per cycle
[17] = 3 cycles of mean 8.4 MBq, PSA 39.7 ng/ml at first cycle
[18] = 73 patients, percentage in parentheses
[19] = Sathekge 2020, 73 patients, 4-8 MBq per cycle
[20] = Sathekge 2019b, 17 patients, 4-8 MBq per cycle
[21] = Kratochwil 2016, 2 patients, 100 kBq/kg per cycle
[22] = both patients, 100 kBq/kg every 8 weeks
[23] = Kratochwil 2018, 40 patients, 100 kBq/kg per cycle

For O=C(O)CC[C@H](NC(=O)N[C@@H](CCCCNC(=O)[C@H](Cc1ccc2ccccc2c1)NC(=O)[C@H]1CC[C@H](CNC(=O)CN2CCN(CC(=O)O)CCN(CC(=O)O)CCN(CC(=O)O)CC2)CC1)C(=O)O)C(=O)O [^225Ac-PSMA-617, metal not drawn], the “Biochemical response PSA50” value [1, 14] is given as 39%, the Major toxicity [1, 14] is given as “xerostomia; also recorded: fatigue” and the OS [1, 14] is given as 17 mo. For the same compound, the PFS [1, 14] was 12 mo, the “PSA decline of >50%” value ([1]; ^177Lu PSMA naïve group) was 53.8% and the median survival ([1]; ^177Lu PSMA naïve group) was 12 months. For the same compound, the overall survival ([1]; ^177Lu PSMA naïve group) was 17 months, the progression rate ([1]; ^177Lu PSMA naïve group) was 22.3% and the “PSA decline of >50%” value [1, 15] was 26.6%. The median survival [1, 15] was 10 months, the overall survival [1, 15] was 16 months and the progression rate [1, 15] was 46%. For the same compound, the “Biochemical response PSA50” value [2, 16] was 44%, the Major toxicity [2, 16] was “xerostomia” and the OS [2, 16] was “na/8.5 mo”. The “duration of prostate-specific antigen decline” value ([2]; at 100 kBq/kg) was “less than 4 months”, the dose-limiting toxicity ([2]; if treatment activity exceeded 100 kBq/kg per cycle) was “severe xerostomia” and the “patients with remarkable antitumor activity (objective radiologic response or tumor marker decline)” value ([2]; of 11 evaluable patients) was 9 patients. For the same compound, the toxicity ([2]; treatment activities of 50 kBq/kg) was “without toxicity”, the antitumor response ([2]; treatment activities of 50 kBq/kg, high-tumor-burden patients) was “insufficient antitumor response” and the “PSA level at second cycle” value [3, 17] was 7.7 ng/mL. For the same compound, the “PSA level at third cycle” value [3, 17] was 0.32 ng/mL, the xerostomia ([3]; 3 cycles of mean 8.4 MBq) was “chronic xerostomia” and the creatinine ([3]; January 2019, increased from 1.3 in October 2015) was 3.3 mg/dL. The “Median PFS” value ([4]; 73 patients, 95% CI, 13.1-17.4 months) was 15.2 months, the “Median OS” value ([4]; 73 patients, 95% CI, 16.2-19.9 months) was 18 months and the “Anemia, Grade I or II” value ([4]; 73 patients) was 22 patients. For the same compound, the “Anemia, Grade IV” value ([4]; 73 patients) was 0 patients, the “Anorexia, Grade I or II” value ([4]; 73 patients) was 23 patients and the “Anorexia, Grade III” value ([4]; 73 patients) was 0 patients. The “Anorexia, Grade IV” value ([4]; 73 patients) was 0 patients, the “Constipation, Grade I or II” value ([4]; 73 patients) was 19 patients and the “Constipation, Grade III” value ([4]; 73 patients) was 0 patients. For the same compound, the “Constipation, Grade IV” value ([4]; 73 patients) was 0 patients, the “Dry eyes, Grade I or II” value ([4]; 73 patients) was 4 patients and the “Dry eyes, Grade III” value ([4]; 73 patients) was 0 patients. The “Dry eyes, Grade IV” value ([4]; 73 patients) was 0 patients, the “Dry mouth, Grade I or II” value ([4]; 73 patients) was 62 patients and the “Dry mouth, Grade III” value ([4]; 73 patients) was 0 patients. For the same compound, the “Dry mouth, Grade IV” value ([4]; 73 patients) was 0 patients, the “Dysgeusia, Grade I or II” value ([4]; 73 patients) was 4 patients and the “Dysgeusia, Grade III” value ([4]; 73 patients) was 0 patients. For the same compound, the “Dysgeusia, Grade IV” value ([4]; 73 patients) was 0 patients, the “Dyspepsia, Grade I or II” value ([4]; 73 patients) was 3 patients and the “Dyspepsia, Grade III” value ([4]; 73 patients) was 0 patients. For the same compound, the “Dyspepsia, Grade IV” value ([4]; 73 patients) was 0 patients, the “Dysuria, Grade I or II” value ([4]; 73 patients) was 13 patients and the “Dysuria, Grade III” value ([4]; 73 patients) was 0 patients. For the same compound, the “Dysuria, Grade IV” value ([4]; 73 patients) was 0 patients, the “Fatigue, Grade I or II” value ([4]; 73 patients) was 37 patients and the “Fatigue, Grade III” value ([4]; 73 patients) was 0 patients. The “Fatigue, Grade IV” value ([4]; 73 patients) was 0 patients, the “Hypoalbuminemia, Grade I or II” value ([4]; 73 patients) was 14 patients and the “Hypoalbuminemia, Grade III” value ([4]; 73 patients) was 0 patients. For the same compound, the “Hypoalbuminemia, Grade IV” value ([4]; 73 patients) was 0 patients, the “Leukopenia, Grade I or II” value ([4]; 73 patients) was 7 patients and the “Leukopenia, Grade IV” value ([4]; 73 patients) was 0 patients. The “Nausea, Grade I or II” value ([4]; 73 patients) was 15 patients, the “Nausea, Grade III” value ([4]; 73 patients) was 0 patients and the “Nausea, Grade IV” value ([4]; 73 patients) was 0 patients. For the same compound, the “Renal Failure, Grade I or II” value ([4]; 73 patients) was 18 patients, the “Thrombocytopenia, Grade I or II” value ([4]; 73 patients) was 6 patients and the “Thrombocytopenia, Grade IV” value ([4]; 73 patients) was 0 patients. For the same compound, the “Vomiting, Grade I or II” value ([4]; 73 patients) was 4 patients, the “Vomiting, Grade III” value ([4]; 73 patients) was 0 patients and the “Vomiting, Grade IV” value ([4]; 73 patients) was 0 patients. For the same compound, the “Weight loss, Grade I or II” value ([4]; 73 patients) was 28 patients, the “Weight loss, Grade III” value ([4]; 73 patients) was 0 patients and the “Weight loss, Grade IV” value ([4]; 73 patients) was 0 patients. The “patients with negative ^68Ga-PSMA PET/CT images post therapy” value ([4]; 73 patients) was 29%, the “Anemia, Grade III” value [4, 18] was 5 (7) patients and the “Leukopenia, Grade III” value [4, 18] was 2 (3) patients. The “Renal Failure, Grade III” value [4, 18] was 3 (4) patients, the “Renal Failure, Grade IV” value [4, 18] was 2 (3) patients and the “Thrombocytopenia, Grade III” value [4, 18] was 1 (1) patients. The “Biochemical response PSA50 (≥50% PSA decline)” value [4, 19] was 70%, the OS [4, 19] was 18.0 mo and the PFS [4, 19] was 15.2 mo. For the same compound, the “Biochemical response PSA50 (≥50% PSA decline)” value ([4]; Sathekge 2020, 73 patients, 4-8 MBq per cycle, listed as PSMA-617) was 70%, the “patients with any decline in PSA” value ([4]; at the end of therapy, 73 patients) was 82% and the “patients who had passed away” value ([4]; of 73) was 13 patients. For the same compound, the “patients with disease progression” value ([4]; of 73) was 23 patients, the “most frequently noted side-effect” value ([5]; 17 patients, no discontinuation due to severe symptoms) was “Grade 1-2 xerostomia” and the “Biochemical response PSA50” value [5, 20] was 88%. The Major toxicity [5, 20] was “xerostomia”, the nephrotoxicity ([5]; a patient with only a single functional kidney, poor renal functioning from baseline) was “Grade 4 nephrotoxicity” and the “patients with PSA decline >90%” value ([5]; at end of therapy, 17 patients) was 82%. For the same compound, the patients still alive ([5]; median follow up of 13 months post initiation of treatment) was 82%, the “surviving patients in remission with undetectable serum PSA levels” value ([5]; median follow up of 13 months) was 50% and the “surviving patients with stable disease” value ([5]; median follow up of 13 months) was 50%. For the same compound, the “patients with poor response despite sufficient tumor uptake in PSMA PET/CT” value [6] was 10 patients, the “Biochemical response PSA50” value [7] was 69% and the Major toxicity [7] was “xerostomia”. The OS [7] was “na/8.5 mo”, the kidney function [8] was “deteriorated” and the route of excretion [8] was “predominantly renal excretion”. For the same compound, the “Salivary gland toxicity (xerostomia)” value ([9]; 2 patients) was “reported in both patients”, the “Biochemical response PSA50” value [9, 21] was 100% and the Major toxicity [9, 21] was “xerostomia”. For the same compound, the PSA [9, 22] was “declined below the measurable level”, the “response on ^68Ga-PSMA-11 PET/CT scan” value [9, 22] was “complete response” and the “Biochemical response PSA50” value [10] was 100%. The “Biochemical response PSA50” value [11] was 100%, the Major toxicity [11] was “xerostomia; also recorded: xerophtalmia” and the “mean dose for salivary glands higher than with ^177Lu-PSMA-617” value [12] was “approximately 70%”. For the same compound, the “red marrow dose higher than with ^177Lu-PSMA-617” value [12] was 85%, the “median duration of tumor control” value ([13]; 40 patients, 100 kBq/kg) was 9 months and the median overall survival ([13]; 40 patients, 100 kBq/kg) was “more than 12 months”. The “progression free survival (median)” value ([13]; 40 patients, 100 kBq/kg) was 7.0 months, the “Biochemical response PSA50 (PSA decline of more than 50%)” value ([13]; Kratochwil 2018, 100 kBq/kg per cycle) was 63% and the “Biochemical response PSA50 (PSA decline of more than 50%)” value ([13]; Kratochwil 2018, 100 kBq/kg per cycle, listed as PSMA-617) was 63%. For the same compound, the Major toxicity [13, 23] was “xerostomia”, the OS [13, 23] was “na/>12 mo” and the “patients demonstrating any PSA response” value ([13]; of 38 patients surviving at least 8 weeks) was 87%.
